Reference: US9802962B2, “Tricyclic pyrone compounds reduce amyloid beta aggregates” (priority 2013, dated 2017)
“Also recorded” adds a separate entry of the source.

How the values were obtained:
[1] = log P by octanol/water partition; format: physicochemical
MC65 neuroblastoma cells = assay: MC65 protection assay; format: cell-based
Experimental: Employing medium-throughput cell-based MC65 protection assay to screen over one hundred TP compounds, seven TP compounds that protect MC65 neuroblastoma cells from death caused by intracellular Aβ have been identified. […] The EC50 values for CP2, TP70, and TP101 are 120, 80, and 70 nM, respectively.

[2] = Plasma concentration after 7 days of TP70 in drinking water, APP/PS1 mice; format: in vivo; settings: after 7 days in drinking water
From the text: The validated SmartCage™ system that enables automated, objective, quantitative and long-term evaluation of neuropsychological endpoints at the animal's home cages (Flores, et al., IEEE Trans Biomed Eng, 2007, 54:225-233; Xiong, et al., Stroke, 2011, 42:2026-2032; Carter, et al., Nat Neurosci, 2010, 13:1526-1533; Khroyan, et al., Clin Exp Pharmacol Physiol, 2012, 39:614-622) was used to complement other special individual learning and memory tests (Shineman, et al., Alzheimers Res Ther, 2011, 3:28; Hamann, et al., Neuropsychologia, 2002, 40:1187-1195; Aultman, et al., Psychopharmacology (Berl), 2001, 153:353-364; Ashe, K H, J Alzheimers Dis, 2006, 9:123-126). The SmartCage was able to reveal the behavioral phenotypes of a mouse stroke model of middle cerebral artery occlusion (MCAO) (Xiong, et al., Stroke, 2011, 42:2026-2032) and a hypocretin/orexin neuron degeneration model (orexin/ataxin-3) (Xie, et al., J Clin Invest, 2008, 118:2471-2481; Aultman, et al., Psychopharmacology (Berl), 2001, 153:353-364; Hara, et al., Neuron 2001, 30:345-354). […] These validated protocols were applied to PK/PD studies on TP70 in one more AD transgenic model, APP/PS1 mice, which express mutant APPs in combination with mutant PS1. […] Homecage activity and locomotion were assessed on Day 7 after the treatment and the blood samples were collected from each mouse after the assessment of general behavior. […]

[3] = test system: ABCA1 cholesterol transporter gene; assay: Increase of ABCA1 cholesterol transporter gene; format: cell-based
From the text: (§1) It has been reported that an induction of cholesterol efflux resulting in a reduction of Aβ formation/deposition in vitro and in vivo (Kim, et al., J Alzheimers Dis, 2009, 16:121-131). For additional Detail, see the attached manuscript entitled, “Inhibition of Acyl-CoA: Cholesterol Acyltransferase (ACAT), Overexpression of Cholesterol Transporter Gene, and Protection of Amyloid β (Aβ) Oligomers-Induced Neuronal Cell Death by Tricylic Pyrone Molecules” which is incorporated herein.

ACAT = ACAT inhibition; format: biochemical; settings: read-out: half maximal inhibitory concentration (IC50), ACAT
From the text: as §1

[4] = Plasma PK and bioavailability, iv versus po, in mice; format: in vivo
Experimental: FIG. 5. Plasma concentrations of TP70 following iv or po administration (25 mg/Kg; iv, n=3 in each timepoint; or po, n=3 in each timepoint). Plasma concentrations were plotted against time post-dosing.
Since the drug will ultimately be administered orally, the bioavailability (F) of TP70 was determined in mice (male C57BL/6, 4 to 6 months old, n=3/group). Each mouse was treated with TP 70 (25 mg/kg). The drug was initially dissolved in pure dimethyl sulfoxide (DMSO) and then diluted with 0.5% hydroxypropylcellulose (HPC) in distilled water in a final solution containing 2% DMSO. At different time points about 50 μl plasma was sampled via tail cut for blood collection with a tube treated with ethylenediaminetetraacetic acid (EDTA). The compound was measured using HPLC/mass spectrometer. The maximal plasma concentration following iv administration is 16.6±6.1 μg/ml (equivalent to 42 μM) and po is 6.9±0.17 μg/ml (equivalent to 17 μM).

rat hippocampal slices = assay: Long-term potentiation (LTP) in rat hippocampal slices; format: cell-based
Experimental: FIGS. 2A-2B. Effects of TP70 on rat hippocampal LTP. FIG. 2A. Top panels show superimposed field excitatory post-synaptic potentials (EPSPs) taken from baseline and 45 min following high frequency stimulation (HFS, four 1-s trains of 100 pulses of 0.2 ms delivered at 100 Hz, inter-train interval of 20 s) of the Schaffer collateral-CA1 synapses. FIG. 2B. […] In Control HFS induced LTP. AβO blocked LTP. TP70 (1 μM) restored LTP in the presence of AβO. TP70 alone enhanced LTP.
We further investigated effects of TP70 on basal neurotransmission and synaptic plasticity, for example long-term potentiation (LTP) in rat hippocampal slices as previously described (Villeda, et al., Nature, 2011, 477:90-94; Xie, et al., Pflugers Arch, 1994, 427:481-486).

Cc1cc2c(c(=O)o1)C=C1CCC(C(C)CNCc3ccc(O)cc3)CC1O2 (stereo not shown) [TP70]
log P [1]: 1.90 | concentration required for cell toxicity protection (MC65 neuroblastoma cells): submicromolar | EC50 values (in words) (MC65 neuroblastoma cells; protection of MC65 cells from death caused by intracellular Aβ): nanomolar range | EC50 (MC65 neuroblastoma cells; protection of MC65 cells from death caused by intracellular Aβ, read-out: effective concentrations for 50% cell survival (EC50)): 0.08 µM | plasma TP70 concentration [2]: 1.7 ± 0.5 mg/L | plasma TP70 concentration (equivalent) [2]: 4.3 µM | EC50 [3]: 1.1 µM | IC50 (ACAT): 0.3 µM | Average concentration of TP70 in plasma ([4]; iv route, 5 min): 16.6 ± 6.1 mg/L | Average concentration of TP70 in plasma ([4]; iv route, 15 min): 10.2 ± 4 mg/L | Average concentration of TP70 in plasma ([4]; iv route, 30 min): 8.2 ± 3.5 mg/L | Average concentration of TP70 in plasma ([4]; iv route, 60 min): 3.7 ± 0.8 mg/L | Average concentration of TP70 in plasma ([4]; iv route, 120 min): 2.02 ± 0.6 mg/L | Average concentration of TP70 in plasma ([4]; iv route, 240 min): 1.8 ± 0.5 mg/L | Average concentration of TP70 in plasma ([4]; iv route, 360 min): 0.9 ± 0.3 mg/L | F ([4]; iv route, fraction): 1 | Area under the curve (AUC) ([4]; iv, 25 mg/kg): 989 | maximal plasma concentration ([4]; iv, 25 mg/kg): 16.6 ± 6.1 µg/mL | maximal plasma concentration (equivalent) ([4]; iv, 25 mg/kg): 42 µM | t1/2 ([4]; iv, 25 mg/kg): around 30 min | Average concentration of TP70 in plasma ([4]; oral gavage (po) route, 15 min): 2.8 ± 0.09 mg/L | Average concentration of TP70 in plasma ([4]; oral gavage (po) route, 30 min): 3.9 ± 0.14 mg/L | Average concentration of TP70 in plasma ([4]; oral gavage (po) route, 60 min): 6.9 ± 0.17 mg/L | Average concentration of TP70 in plasma ([4]; oral gavage (po) route, 120 min): 4.2 ± 0.19 mg/L | Average concentration of TP70 in plasma ([4]; oral gavage (po) route, 240 min): 2.4 ± 1.37 mg/L | Average concentration of TP70 in plasma ([4]; oral gavage (po) route, 360 min): 1.2 ± 0.23 mg/L | bioavailability (F) ([4]; po versus iv, 25 mg/kg): 68% | Area under the curve (AUC) ([4]; po, 25 mg/kg): 678 | maximal plasma concentration ([4]; po, 25 mg/kg): 6.9 ± 0.17 µg/mL | maximal plasma concentration (equivalent) ([4]; po, 25 mg/kg): 17 µM | concentration required for enhancing synaptic activity and LTP restoration (rat hippocampal slices): 0.1 to 3 µM | LTP in the presence of AβO (rat hippocampal slices; 1 μM, perfused 20 min prior to co-application of AβO): restored LTP; also recorded: restored LTP to the non-AβO-treated level | basal synaptic activity (rat hippocampal slices; compound alone): without affecting basal synaptic activity | magnitude of LTP, compound alone (rat hippocampal slices; without AβO): significantly enhanced the magnitude of LTP
